Patent US11406624B2, “Pyrazolopyridine compounds and uses thereof” (Incyte Corporation, priority 2017, dated 2022)

Biological target: HPK1 (Homo sapiens (Human), UniProt Q92918)
Assay: HPK1 Kinase Binding Assay
Details: LanthaScreen tracer 222 binding, active HPK1, one hour incubation at 25° C.
Procedure: A stock solution of 1 mM test compound was prepared in DMSO. The compound plate was prepared by 3-fold and 11-point serial dilutions. 0.1 μL of the compound in DMSO was transferred from the compound plate to the white 384 well polystyrene plates. The assay buffer contained 50 mM HEPES, pH 7.5, 0.01% Tween-20, 5 mM MgCl2, 0.01% BSA, and 5 mM DTT. 5 μl of 4 nM active HPK1 (SignalChem M23-11G) prepared in the buffer was added to the plate. The enzyme concentration given was based on the given stock concentration reported by the vender. 5 μl of 18 nM tracer 222 (ThermoFisher PV6121) and 4 nM LanthaScreen Eu-Anti GST antibody (ThermoFisher PV5595) were added. After one hour incubation at 25° C., the plates were read on a PHERAstar FS plate reader (BMG Labtech). Ki values were determined.

Sequence of HPK1 (Q92918 1-346): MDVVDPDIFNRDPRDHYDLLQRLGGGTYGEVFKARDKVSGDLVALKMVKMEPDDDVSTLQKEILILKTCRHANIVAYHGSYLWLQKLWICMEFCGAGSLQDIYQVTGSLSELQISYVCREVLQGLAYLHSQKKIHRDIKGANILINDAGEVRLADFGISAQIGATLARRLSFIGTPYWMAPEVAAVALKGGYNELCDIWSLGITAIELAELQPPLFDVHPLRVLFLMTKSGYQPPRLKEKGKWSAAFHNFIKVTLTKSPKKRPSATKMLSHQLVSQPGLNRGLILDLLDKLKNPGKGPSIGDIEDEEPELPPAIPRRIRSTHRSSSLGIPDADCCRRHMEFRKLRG

Ki [nM] | Compound
≤ 100 | Cc1ccncc1-c1cc2c(NC(=O)c3ccc(N4CCOCC4)cc3)n[nH]c2cn1 [Example 1, N-(5-(4-methylpyridin-3-yl)-1H-pyrazolo[3,4-c]pyridin-3-yl)-4-morpholinobenzamide]
≤ 100 | Cc1ccncc1-c1cc2c(NC(=O)c3ccc(N4CCN(C)CC4)cc3)n[nH]c2cn1 [Example 2, 4-(4-Methylpiperazin-1-yl)-N-(5-(4-methylpyridin-3-yl)-1H-pyrazolo[3,4-c]pyridin-3-yl)benzamide]
≤ 100 | CCOC(=O)N1CCN(c2ccc(C(=O)Nc3n[nH]c4cnc(-c5cnccc5C)cc34)cc2)CC1 [Example 3, Ethyl 4-(4-(5-(4-methylpyridin-3-yl)-1H-pyrazolo[3,4-c]pyridin-3-ylcarbamoyl)phenyl)piperazine-1-carboxylate]
≤ 100 | COC1CCN(c2ccc(C(=O)Nc3n[nH]c4cnc(-c5cnccc5C)cc34)cc2)CC1 [Example 4, 4-(4-Methoxypiperidin-1-yl)-N-(5-(4-methylpyridin-3-yl)-1H-pyrazolo[3,4-c]pyridin-3-yl)benzamide]
≤ 100 | Cc1ccncc1-c1cc2c(NC(=O)c3ccc(N4CCCC(N)C4)cc3)n[nH]c2cn1 (stereo not shown) [Example 5, 4-(3-Aminopiperidin-1-yl)-N-(5-(4-methylpyridin-3-yl)-1H-pyrazolo[3,4-c]pyridin-3-yl)benzamide]
≤ 100 | Cc1c(-c2cc3c(NC(=O)c4ccc(N5CCOCC5)cc4)n[nH]c3cn2)cnn1C [Example 6, N-(5-(1,5-dimethyl-1H-pyrazol-4-yl)-1H-pyrazolo[3,4-c]pyridin-3-yl)-4-morpholinobenzamide]
≤ 100 | Cc1c(-c2cc3c(NC(=O)c4ccc(N5CCN(C)CC5)cc4)n[nH]c3cn2)cnn1C [Example 7, N-(5-(1,5-dimethyl-1H-pyrazol-4-yl)-1H-pyrazolo[3,4-c]pyridin-3-yl)-4-(4-methylpiperazin-1-yl)benzamide]
≤ 100 | CCOC(=O)N1CCN(c2ccc(C(=O)Nc3n[nH]c4cnc(-c5cnn(C)c5C)cc34)cc2)CC1 [Example 8, Ethyl 4-(4-(5-(1,5-dimethyl-1H-pyrazol-4-yl)-1H-pyrazolo[3,4-c]pyridin-3-ylcarbamoyl)phenyl)piperazine-1-carboxylate]
≤ 100 | COC1CCN(c2ccc(C(=O)Nc3n[nH]c4cnc(-c5cnn(C)c5C)cc34)cc2)CC1 [Example 9, N-(5-(1,5-dimethyl-1H-pyrazol-4-yl)-1H-pyrazolo[3,4-c]pyridin-3-yl)-4-(4-methoxypiperidin-1-yl)benzamide]
≤ 100 | COC1CCCN(c2ccc(C(=O)Nc3n[nH]c4cnc(-c5cnn(C)c5C)cc34)cc2)C1 (stereo not shown) [Example 10, N-(5-(1,5-dimethyl-1H-pyrazol-4-yl)-1H-pyrazolo[3,4-c]pyridin-3-yl)-4-(3-methoxypiperidin-1-yl)benzamide]
≤ 100 | CCCNc1ccc(C(=O)Nc2n[nH]c3cnc(-c4cnn(C)c4C)cc23)cc1 [Example 11, N-(5-(1,5-dimethyl-1H-pyrazol-4-yl)-1H-pyrazolo[3,4-c]pyridin-3-yl)-4-(propylamino)benzamide]
≤ 100 | COCCNc1ccc(C(=O)Nc2n[nH]c3cnc(-c4cnn(C)c4C)cc23)cc1 [Example 12, N-(5-(1,5-dimethyl-1H-pyrazol-4-yl)-1H-pyrazolo[3,4-c]pyridin-3-yl)-4-(2-methoxyethylamino)benzamide]
≤ 100 | Cc1c(-c2cc3c(NC(=O)c4ccc(N5CCC(F)(F)C5)cc4)n[nH]c3cn2)cnn1C [Example 13, 4-(3,3-Difluoropyrrolidin-1-yl)-N-(5-(1,5-dimethyl-1H-pyrazol-4-yl)-1H-pyrazolo[3,4-c]pyridin-3-yl)benzamide]
≤ 100 | COc1ccncc1-c1cc2c(NC(=O)c3ccc(N4CCN(C)CC4)cc3)n[nH]c2cn1 [Example 14, N-(5-(4-methoxypyridin-3-yl)-1H-pyrazolo[3,4-c]pyridin-3-yl)-4-(4-methylpiperazin-1-yl)benzamide]
≤ 100 | Cc1ccncc1-c1cc2c(C(=O)Nc3ccc(N4CCN(C)CC4)cc3)n[nH]c2cn1 [Example 15, N-(4-(4-methylpiperazin-1-yl)phenyl)-5-(4-methylpyridin-3-yl)-1H-pyrazolo[3,4-c]pyridine-3-carboxamide]
≤ 100 | COc1ccncc1-c1cc2c(C(=O)Nc3ccc(N4CCN(C)CC4)cc3)n[nH]c2cn1 [Example 16, 5-(4-Methoxypyridin-3-yl)-N-(4-(4-methylpiperazin-1-yl)phenyl)-1H-pyrazolo[3,4-c]pyridine-3-carboxamide]
